The results in this text go back to patent US20230085307A1, “PYRIDAZINONE COMPOUND AND HERBICIDE” (NISSAN CHEMICAL CORPORATION, priority 2019, published 2023).

For assay [1], the system named is Chinese sprangletop. The assay can be described thus: Test Example 3: herbicidal effect by foliage application, Wagner pot (Table 18, symbol D). The format is in vivo, chinese sprangletop (Leptochloa chinensis). To be noted: for herbicidal effect on Chinese sprangletop (D): 320 g/ha. Summed up: (§1)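 Plants were sown in alluvial soil held under 0.1–0.5 cm standing water and grown 14 days in a greenhouse at 25–30 °C. An emulsifiable formulation, water-diluted to the set dose, was then sprayed onto the foliage, and effects were scored three weeks later using previously defined criteria.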

The subject of assay [2] is barnyard grass. The assay can be described thus: Test Example 3: herbicidal effect by foliage application, Wagner pot (Table 18, symbol H). To be noted: for herbicidal effect on barnyard grass (H): 320 g/ha. The format is in vivo, barnyard grass (Echinochloa crus-galli). The method in brief:
as §1

In assay [3] the test system is green foxtail. As to the kind of experiment: Test Example 4: herbicidal effect by soil treatment (Table 19, symbol G). The format is in vivo, green foxtail (Setaria viridis). To be noted: amount of applied herbicide 320 g/ha. Summed up: (§2)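 Scoring uses the grading scale of an earlier test, three weeks post-application. Treatment consists of spraying a diluted emulsion formulation across the surface of sterilized diluvial soil in which seeds are buried near 1.5 cm deep; boxes are kept in a greenhouse between 25° C. and 30° C.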

Assay [4] has as its system redroot pigweed. As to the kind of experiment: Test Example 4: herbicidal effect by soil treatment (Table 19, symbol N). The format is in vivo, redroot pigweed (Amaranthus retroflexus). To be noted: amount of applied herbicide 320 g/ha. Summed up: as §2
For assay [5], the system named is green foxtail. As to the kind of experiment: Test Example 5: herbicidal effect by foliage application, plastic box (Table 20, symbol G). The format is in vivo, green foxtail (Setaria viridis). The note with it: foliage application, 320 g/ha, three weeks after application. The method in brief:
(§3)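 Post-emergence foliar test in sterilized diluvial soil. Compound applied as water-diluted emulsion at a predetermined rate to 14-day-old plants; evaluation at three weeks.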

For assay [6], the system named is redroot pigweed. As to the kind of experiment: Test Example 5: herbicidal effect by foliage application, plastic box (Table 20, symbol N). The format is in vivo, redroot pigweed (Amaranthus retroflexus). To be noted: foliage application, 320 g/ha, three weeks after application. The method in brief:
as §3

Assay [7] relates to velvetleaf. The assay can be described thus: Test Example 5: herbicidal effect by foliage application, plastic box (Table 20, symbol M). The format is in vivo, velvetleaf (Abutilon theophrasti). The note with it: foliage application, 320 g/ha, three weeks after application. Summed up:
as §3

The test system of assay [8] is lambsquarters. As to the kind of experiment: Test Example 5: herbicidal effect by foliage application, plastic box (Table 20, symbol O). To be noted: foliage application, 320 g/ha, three weeks after application. The format is in vivo, lambsquarters (Chenopodium album). The method in brief:
as §3

Assay [9] has as its system barnyard grass. As to the kind of experiment: Test Example 5: herbicidal effect by foliage application, plastic box (Table 20, symbol H). The format is in vivo, barnyard grass (Echinochloa crus-galli). To be noted: foliage application, 320 g/ha, three weeks after application. Summed up:
as §3

Assay [10] deals with wild oat. The assay can be described thus: Test Example 5: herbicidal effect by foliage application, plastic box (Table 20, symbol I). The format is in vivo, wild oat (Avena fatua). The note with it: foliage application, 320 g/ha, three weeks after application. The method in brief:
as §3

The subject of assay [11] is velvetleaf. The assay can be described thus: Test Example 4: herbicidal effect by soil treatment (Table 19, symbol M). The format is in vivo, velvetleaf (Abutilon theophrasti). The note with it: amount of applied herbicide 320 g/ha. Summed up: as §2
The test system of assay [12] is windgrass. As to the kind of experiment: Test Example 4: herbicidal effect by soil treatment (Table 19, symbol L). The format is in vivo, windgrass (Apera spica-venti). The note with it: amount of applied herbicide 320 g/ha. Summed up: as §2
Assay [13] relates to late watergrass. The assay can be described thus: Test Example 2: herbicidal activity, application during weed generation under submerged conditions (Table 17, symbol A). The format is in vivo, late watergrass (Echinochloa oryzicola). The note with it: AAH 320 g/ha; application during weed generation, submerged conditions. The method in brief: (§4)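 Mixed weed seedlings in alluvial soil under a 4 cm water layer, greenhouse-grown at 25–30° C. Compound given as a diluted emulsion into the floodwater at the 1–2 leaf stage; response graded after three weeks.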

The subject of assay [14] is oval-leafed pondweed. As to the kind of experiment: Test Example 2: herbicidal activity, application during weed generation under submerged conditions (Table 17, symbol C). The format is in vivo, oval-leafed pondweed (Monochoria vaginalis). The note with it: AAH 320 g/ha; application during weed generation, submerged conditions. Summed up:
as §4

Assay [15] relates to late watergrass. As to the kind of experiment: Test Example 1: herbicidal activity, application before weed generation under submerged conditions (Table 16, symbol A). The format is in vivo, late watergrass (Echinochloa oryzicola). The note with it: amount of applied herbicide 320 g/ha. The method in brief: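 Submerged Wagner pots (alluvial soil, 4 cm water) sown with weed seeds and planted with 2.5-leaf rice seedlings; emulsifiable concentrate diluted in water applied to water surface on sowing day. Held in greenhouse at 25-30 °C; injury scored 0-5 by herbicidal rate after three weeks.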

In assay [16] the test system is windgrass. The assay can be described thus: Test Example 5: herbicidal effect by foliage application, plastic box (Table 20, symbol L). The format is in vivo, windgrass (Apera spica-venti). To be noted: foliage application, 320 g/ha, three weeks after application. The method in brief:
as §3

The mark [17] stands for this setting: amount of applied herbicide 320 g/ha.

For `COc1ccccc1-c1sc2cc(F)ccc2c1-c1c(OS(=O)(=O)N(C)C)c(C)nn(C)c1=O` [3-028], the “herbicidal effect on D: Chinese sprangletop” value in assay [1] (setting [17]) is 3 (Herbicidal rate of 40% or more and less than 70%). Also, the “herbicidal effect on H: barnyard grass” value in [2] (setting [17]) is 4 (Herbicidal rate of 70% or more and less than 90%). For the same compound, the “G: green foxtail, herbicidal effect grade” value (from here on “G: green foxtail”) is 0 (Herbicidal rate of 5% or less (almost no effect)) in assay [3]; 4 (Herbicidal rate of 70% or more and less than 90%) in assay [5]. Further, the “N: redroot pigweed, herbicidal effect grade” value (“N: redroot pigweed” for short) in [4] is on record as 0 (Herbicidal rate of 5% or less (almost no effect)); in assay [6], 5 (Herbicidal rate of 90% or more (almost completely withered)). Further, the “M: velvetleaf, herbicidal effect grade” value in assay [7] was 4 (Herbicidal rate of 70% or more and less than 90%); in assay [11] it was 0 (Herbicidal rate of 5% or less (almost no effect)). In assay [8], the “O: lambsquarters, herbicidal effect grade” value (shortened to “O: lambsquarters”) was 2 (Herbicidal rate of 20% or more and less than 40%). Moreover, in assay [9], the “H: barnyard grass, herbicidal effect grade” value was 2 (Herbicidal rate of 20% or more and less than 40%). For the same compound, the “I: wild oat, herbicidal effect grade” value in assay [10] was 0 (Herbicidal rate of 5% or less (almost no effect)). The “L: windgrass, herbicidal effect grade” value in assay [12] was 3 (Herbicidal rate of 40% or more and less than 70%); in assay [16], 5 (Herbicidal rate of 90% or more (almost completely withered)). Further, the “herbicidal effect rating, A: late watergrass” value in assay [13] is 2 (Herbicidal rate of 20% or more and less than 40%). For the same compound, the “herbicidal effect rating, C: oval-leafed pondweed” value (from here on “herbicidal effect rating, C”) in assay [14] is 0 (Herbicidal rate of 5% or less (almost no effect)). Also, the “Herbicidal effect, A: late watergrass” value in [15] is 2 (Herbicidal rate of 20% or more and less than 40%).

As to `CCCC(=O)Oc1c(C)nn(C)c(=O)c1-c1c(-c2ccc(Cl)cc2)sc2cc(Cl)ccc12` [3-034], the “herbicidal effect on Chinese sprangletop (D)” value (“herbicidal effect … (D)” for short) in assay [1] is 4 (Herbicidal rate of 70% or more and less than 90%). Moreover, in assay [2], the “herbicidal effect on barnyard grass (H)” value was 5 (Herbicidal rate of 90% or more (almost completely withered)). For the same compound, the “G: green foxtail” value is 0 (Herbicidal rate of 5% or less (almost no effect)) in [3]; 4 (Herbicidal rate of 70% or more and less than 90%) in [5]. Also, the “N: redroot pigweed” value in assay [4] was 3 (Herbicidal rate of 40% or more and less than 70%); in assay [6], 4 (Herbicidal rate of 70% or more and less than 90%). Besides, the “M: velvetleaf, herbicidal effect grade” value in [7] was 4 (Herbicidal rate of 70% or more and less than 90%); in assay [11], 3 (Herbicidal rate of 40% or more and less than 70%). Besides, in assay [8], the “O: lambsquarters” value is 4 (Herbicidal rate of 70% or more and less than 90%). In addition, in assay [9], the “H: barnyard grass, herbicidal effect grade” value was 3 (Herbicidal rate of 40% or more and less than 70%). In assay [10], the “I: wild oat, herbicidal effect grade” value was 3 (Herbicidal rate of 40% or more and less than 70%). In addition, the “L: windgrass, herbicidal effect grade” value in [12] was 0 (Herbicidal rate of 5% or less (almost no effect)); in [16] it was 5 (Herbicidal rate of 90% or more (almost completely withered)). Besides, the “herbicidal effect rating, A: late watergrass” value in assay [13] is 3 (Herbicidal rate of 40% or more and less than 70%). Also, the “herbicidal effect rating, C” value in assay [14] is 0 (Herbicidal rate of 5% or less (almost no effect)). In [15], the “Herbicidal effect, A: late watergrass” value was 3 (Herbicidal rate of 40% or more and less than 70%).

Turning to `CCOc1ccccc1-c1sc2cc(Cl)ccc2c1-c1c(O)c(C)nn(C)c1=O` [3-039], the “herbicidal effect … (D)” value in assay [1] is 3 (Herbicidal rate of 40% or more and less than 70%). Besides, the “herbicidal effect on barnyard grass (H)” value in [2] was 4 (Herbicidal rate of 70% or more and less than 90%). In addition, the “G: green foxtail” value is 4 (Herbicidal rate of 70% or more and less than 90%) in assay [3]; 5 (Herbicidal rate of 90% or more (almost completely withered)) in assay [5]. The “N: redroot pigweed” value in assay [4] is 4 (Herbicidal rate of 70% or more and less than 90%); in assay [6], 4 (Herbicidal rate of 70% or more and less than 90%). In addition, the “M: velvetleaf, herbicidal effect grade” value in [7] was 5 (Herbicidal rate of 90% or more (almost completely withered)); in [11], 3 (Herbicidal rate of 40% or more and less than 70%). For the same compound, the “O: lambsquarters” value in assay [8] is 3 (Herbicidal rate of 40% or more and less than 70%). The “H: barnyard grass, herbicidal effect grade” value in assay [9] is 5 (Herbicidal rate of 90% or more (almost completely withered)). The “I: wild oat, herbicidal effect grade” value in assay [10] was 1 (Herbicidal rate of 5% or more and less than 20%). The “L: windgrass, herbicidal effect grade” value in assay [12] is 0 (Herbicidal rate of 5% or less (almost no effect)); in assay [16] it was 4 (Herbicidal rate of 70% or more and less than 90%). Besides, the “herbicidal effect rating, A: late watergrass” value in [13] is 2 (Herbicidal rate of 20% or more and less than 40%). Also, the “herbicidal effect rating, C” value in assay [14] was 0 (Herbicidal rate of 5% or less (almost no effect)). The “Herbicidal effect, A: late watergrass” value in [15] is 2 (Herbicidal rate of 20% or more and less than 40%).

For the compound `CCCC(=O)Oc1c(C)nn(C)c(=O)c1-c1c(-c2ccccc2OCC)sc2cc(Cl)ccc12` [3-040], the “herbicidal effect … (D)” value in [1] is 0 (Herbicidal rate of 5% or less (almost no effect)). The “herbicidal effect on barnyard grass (H)” value in [2] was 5 (Herbicidal rate of 90% or more (almost completely withered)). Besides, the “G: green foxtail” value in assay [3] was 2 (Herbicidal rate of 20% or more and less than 40%); in assay [5] it was 4 (Herbicidal rate of 70% or more and less than 90%). Besides, the “N: redroot pigweed” value is 4 (Herbicidal rate of 70% or more and less than 90%) in assay [4]; 5 (Herbicidal rate of 90% or more (almost completely withered)) in [6]. Moreover, the “M: velvetleaf, herbicidal effect grade” value is 4 (Herbicidal rate of 70% or more and less than 90%) in assay [7]; 3 (Herbicidal rate of 40% or more and less than 70%) in assay [11]. In addition, in assay [8], the “O: lambsquarters” value was 2 (Herbicidal rate of 20% or more and less than 40%). For the same compound, the “H: barnyard grass, herbicidal effect grade” value in [9] is 5 (Herbicidal rate of 90% or more (almost completely withered)). For the same compound, in assay [10], the “I: wild oat, herbicidal effect grade” value is 1 (Herbicidal rate of 5% or more and less than 20%). Moreover, the “L: windgrass, herbicidal effect grade” value in [12] and in [16] was 5 (Herbicidal rate of 90% or more (almost completely withered)) throughout. Also, in [13], the “herbicidal effect rating, A: late watergrass” value is 2 (Herbicidal rate of 20% or more and less than 40%). Also, the “herbicidal effect rating, C” value in assay [14] was 3 (Herbicidal rate of 40% or more and less than 70%). Moreover, the “Herbicidal effect, A: late watergrass” value in assay [15] is 4 (Herbicidal rate of 70% or more and less than 90%).
